A short description of one data set: in vitro. The following applies: human, hepatocytes.
Data set [1] addresses T1, Glucagon-like peptide 1 receptor (Homo sapiens, UniProt P43220).
In data set [2] the target is T1, Glucagon-like peptide 1 receptor. The source holds these as a separate data set.
The target is the same in data set [3]. The data set can be described thus: Agonist activity at human GLP-1R expressed in CHO-K1 cells assessed as cAMP accumulation by measuring maximum efficacy at 20 uM incubated for 30 mins in presence of BETP by BETP sensitized time-resolved fluorescence assay relative to control. Type of data set: functional, cell-based. The note with it: filed as agonist.
Data set [4] can be described thus: Lipophilicity, logD of compound at pH 7.4 by RP-HPLC analysis. Type of data set: physicochemical. The note with it: buffer.
Data set [5] deals with T1, Glucagon-like peptide 1 receptor. Description: Agonist activity at human GLP-1R expressed in PathHunter CHO-K1 GLP1R beta-arrestin-2 cells assessed as induction of beta-arrestin 2 recruitment by measuring maximum efficacy incubated for 90 mins in presence of BETP by PathHunter assay relative to control. The class given is functional, cell-based.
For data set [6] the target is unchanged. This is another data set of the same source.
For data set [7] the target is unchanged. The data set can be described thus: Agonist activity at human GLP-1R expressed in PathHunter CHO-K1 GLP1R beta-arrestin-2 cell assessed as induction of beta-arrestin 2 recruitment incubated for 90 mins in presence of BETP by PathHunter assay. The class given is functional, cell-based.
The target is the same in data set [8]. This is another data set of the same source.
Data set [9] addresses Voltage-gated inwardly rectifying potassium channel KCNH2 (Homo sapiens, UniProt Q12809). Description: Inhibition of hERG ion channel by patch-clamp method. The class given is toxicity.
A short description of data set [10]: Lipophilicity, logD of compound at pH 7.4 by shake-flash method. The note with it: buffer. The class given is physicochemical.
Data set [11] in a line: Oral bioavailability in cynomologus monkey at 5 mg/kg measured upto 24 hrs by LC-MS/MS analysis. Type of data set: ADME, organism-based, Macaca fascicularis. The following applies: cynomolgus monkey, in vivo.
The nature of data set [12]: AUC(0 to infinity) in cynomologus monkey at 100 mg/kg, po measured upto 24 hrs by LC-MS/MS analysis. The class given is ADME, organism-based, Macaca fascicularis. More on the design: dose 100 mg/kg, time < 24 hrs, route po. The note with it: cynomolgus monkey, in vivo.
Data set [13] in a line: Cmax in Wistar Han rat at 5 mg/kg, po measured upto 24 hrs by LC-MS/MS analysis. Type of data set: ADME, organism-based. Details: dose 5 mg/kg, time < 24 hrs, route po. The following applies: in vivo.
Data set [14] in a line: AUC (0 to infinity) in Wistar Han rat at 100 mg/kg, po measured upto 24 hrs by LC-MS/MS analysis. The following applies: in vivo. Type of data set: ADME, organism-based. Details: dose 100 mg/kg, time < 24 hrs, route po.
Data set [15] is described as follows: Volume of distribution at steady state in Wistar Han rat at 1 mg/kg, iv measured upto 24 hrs by LC-MS/MS analysis. Type of data set: ADME, organism-based. The note with it: in vivo.
Data set [16] in a line: Oral bioavailability in Wistar Han rat at 100 mg/kg measured upto 24 hrs by LC-MS/MS analysis. The note with it: in vivo. Type of data set: ADME, organism-based.
A short description of data set [17]: Oral bioavailability in Wistar Han rat at 5 mg/kg measured upto 24 hrs by LC-MS/MS analysis. The class given is ADME, organism-based. The note with it: in vivo.
A short description of data set [18]: AUC (0 to infinity) in Wistar Han rat at 5 mg/kg, po measured upto 24 hrs by LC-MS/MS analysis. The following applies: in vivo. Type of data set: ADME, organism-based. Details: dose 5 mg/kg, time < 24 hrs, route po.
Data set [19] in a line: Cmax in Wistar Han rat at 100 mg/kg, po measured upto 24 hrs by LC-MS/MS analysis. Type of data set: ADME, organism-based. More on the design: time < 24 hrs, dose 100 mg/kg, route po. The note with it: in vivo.
The subject of data set [20] is Macaca fascicularis. Description: Induction of insulin secretion in cynomologus monkey assessed as induction of glucose-induced insulin secretion at 1.8 mg, iv dosed once daily by IVGTT. The class given is functional, organism-based. The note with it: DDE = dose-dependent effect.
Data set [21] can be described thus: Volume of distribution at steady state in cynomologus monkey at 1 mg/kg, iv measured upto 24 hrs by LC-MS/MS analysis. The class given is ADME, organism-based, Macaca fascicularis. The note with it: cynomolgus monkey, in vivo.
The nature of data set [22]: Oral bioavailability in cynomologus monkey at 100 mg/kg measured upto 24 hrs by LC-MS/MS analysis. The class given is ADME, organism-based, Macaca fascicularis. The note with it: cynomolgus monkey, in vivo.
The nature of data set [23]: AUC (0 to infinity) in Wistar Han rat at 1 mg/kg, iv measured upto 24 hrs by LC-MS/MS analysis. The class given is ADME, organism-based. More on the design: time < 24 hrs, dose 1 mg/kg, route iv. The following applies: in vivo.
In another data set the test system is CHO. Description: Activation of mouse GLP-1R S33W mutant expressed in CHO cells assessed as increase in cAMP accumulation. Type of data set: cell-based. The note with it: filed as activator.
The nature of data set [24]: AUC(0 to infinity) in cynomologus monkey at 5 mg/kg, po measured upto 24 hrs by LC-MS/MS analysis. The class given is ADME, organism-based, Macaca fascicularis. More on the design: time < 24 hrs, dose 5 mg/kg, route po. The following applies: cynomolgus monkey, in vivo.
Data set [25] is described as follows: AUC(0 to infinity) in cynomologus monkey at 1 mg/kg, iv measured upto 24 hrs by LC-MS/MS analysis. The class given is ADME, organism-based, Macaca fascicularis. The note with it: cynomolgus monkey, in vivo. More on the design: dose 1 mg/kg, time < 24 hrs, route iv.
The nature of data set [26]: Activation of rabbit GLP-1R expressed in CHO cells assessed as increase in cAMP accumulation. Type of data set: cell-based. The following applies: Oryctolagus cuniculus.
The test system of another data set is Cynomolgus monkey. The data set can be described thus: Reduction in food intake in cynomologus monkey at 2.9 mg/kg, po administered once daily for 2 days relative to control. The class given is functional, organism-based. The following applies: Macaca fascicularis, time 2.0 day.
Data set [27] in a line: Cmax in cynomologus monkey at 100 mg/kg, po measured upto 24 hrs by LC-MS/MS analysis. Type of data set: ADME, organism-based, Macaca fascicularis. Details: time < 24 hrs, dose 100 mg/kg, route po. The note with it: cynomolgus monkey, in vivo.
Data set [28] deals with Macaca fascicularis. Description: Induction of insulin secretion in cynomologus monkey assessed as glucose disappearance at 1.8 mg, iv dosed once daily by IVGTT assay. The class given is functional, organism-based.
The nature of data set [29]: Cmax in cynomologus monkey at 5 mg/kg, po measured upto 24 hrs by LC-MS/MS analysis. The class given is ADME, organism-based, Macaca fascicularis. The note with it: cynomolgus monkey, in vivo. Details: time < 24 hrs, dose 5 mg/kg, route po.
Data set [30] can be described thus: Metabolic stability in human liver microsomes assessed as intrinsic clearance in the presence of NADPH by HPLC-MS/MS analysis. The class given is ADME, Microsome.
In data set [31] the target is T1, Glucagon-like peptide 1 receptor. Description: Agonist activity at FAP-tagged human GLP-1R expressed in HEK293 cells assessed as receptor internalization measured after 30 mins by nuclear staining based confocal microscopic analysis. The class given is functional, cell-based. The following applies: filed as agonist.
Data set [32] shares this target. Description: biochemical.
For data set [33] the target is unchanged. This is another data set of the same source.
For data set [34] the target is unchanged. The source holds these as a separate data set.

The values below come from ChEMBL document CHEMBL5154938, “A Small-Molecule Oral Agonist of the Human Glucagon-like Peptide-1 Receptor” (J Med Chem, 2022).

Activity calls are given as the source filed them. The rule behind the calls is not given here.

Voltage-gated inwardly rectifying potassium channel KCNH2, sequence (Q12809 whole entry): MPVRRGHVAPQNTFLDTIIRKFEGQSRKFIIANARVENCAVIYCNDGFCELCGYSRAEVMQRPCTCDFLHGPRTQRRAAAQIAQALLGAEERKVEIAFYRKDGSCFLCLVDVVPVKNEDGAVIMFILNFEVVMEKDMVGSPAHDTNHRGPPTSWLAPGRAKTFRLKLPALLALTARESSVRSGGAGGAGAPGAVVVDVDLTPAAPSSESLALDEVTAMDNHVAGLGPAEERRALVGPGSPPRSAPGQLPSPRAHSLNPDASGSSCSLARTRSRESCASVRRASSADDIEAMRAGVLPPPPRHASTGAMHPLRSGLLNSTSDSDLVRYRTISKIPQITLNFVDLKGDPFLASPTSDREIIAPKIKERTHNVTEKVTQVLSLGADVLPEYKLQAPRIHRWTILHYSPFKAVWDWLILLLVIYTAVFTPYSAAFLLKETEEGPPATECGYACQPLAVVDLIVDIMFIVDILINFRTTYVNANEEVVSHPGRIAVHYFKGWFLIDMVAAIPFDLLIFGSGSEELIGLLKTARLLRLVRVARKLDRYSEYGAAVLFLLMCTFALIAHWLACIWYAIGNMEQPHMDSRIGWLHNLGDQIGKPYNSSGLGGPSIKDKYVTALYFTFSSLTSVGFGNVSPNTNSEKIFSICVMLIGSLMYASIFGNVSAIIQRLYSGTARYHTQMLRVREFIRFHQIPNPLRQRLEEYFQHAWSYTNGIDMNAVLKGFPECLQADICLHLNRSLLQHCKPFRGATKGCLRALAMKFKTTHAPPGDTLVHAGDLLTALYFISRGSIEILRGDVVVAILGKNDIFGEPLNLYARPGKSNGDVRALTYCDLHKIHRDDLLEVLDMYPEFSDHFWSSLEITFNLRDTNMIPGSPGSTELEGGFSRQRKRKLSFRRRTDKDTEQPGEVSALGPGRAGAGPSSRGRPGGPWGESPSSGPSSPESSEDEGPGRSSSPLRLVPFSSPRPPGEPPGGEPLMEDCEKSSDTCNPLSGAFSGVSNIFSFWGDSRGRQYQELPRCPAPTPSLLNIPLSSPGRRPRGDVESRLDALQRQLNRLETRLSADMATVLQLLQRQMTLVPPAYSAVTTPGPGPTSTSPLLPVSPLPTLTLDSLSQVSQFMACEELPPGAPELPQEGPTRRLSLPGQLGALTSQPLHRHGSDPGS
T1 sequence (P43220 whole entry): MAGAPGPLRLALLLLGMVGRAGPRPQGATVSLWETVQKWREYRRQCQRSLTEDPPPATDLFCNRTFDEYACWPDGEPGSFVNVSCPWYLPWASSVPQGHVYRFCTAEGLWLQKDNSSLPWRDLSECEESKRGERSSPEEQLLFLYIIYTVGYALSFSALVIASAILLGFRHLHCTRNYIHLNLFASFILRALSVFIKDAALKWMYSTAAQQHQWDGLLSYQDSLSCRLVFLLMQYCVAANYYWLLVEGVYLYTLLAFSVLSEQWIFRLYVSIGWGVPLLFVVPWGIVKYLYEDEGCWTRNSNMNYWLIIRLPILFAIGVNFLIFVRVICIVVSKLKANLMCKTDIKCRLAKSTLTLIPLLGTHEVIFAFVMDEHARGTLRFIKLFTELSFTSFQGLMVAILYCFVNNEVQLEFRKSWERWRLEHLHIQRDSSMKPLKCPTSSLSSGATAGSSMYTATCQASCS

The molecule `Cn1c(CN2CCC(c3cccc(OCc4ccc(Cl)cc4F)n3)CC2)nc2ccncc21` had a hepatocyte CLint in “in vitro” of 55 µL/min/1e6 cells. For the same molecule, the EC50 was > 30000 nM in data set [1]; 2600 nM in data set [2]; 77 nM in [6]; 9600 nM in [7]; > 20000 nM in [8]. Also, the maximal effect (Emax) in data set [3] is 86%; in [5] (filed as agonist), 100%. The same molecule yielded a pH-dependent lipophilicity (logD) in data set [4] of 5.7. Moreover, the 50% inhibitory concentration (IC50) in [9] was 5600 nM.

On to `Cn1c(CN2CCC(c3cccc(OCc4ccc(Cl)cc4F)n3)CC2)nc2ccc(C(=O)O)nc21`, for which the hepatocyte CLint in “in vitro” was found to be 31 µL/min/1e6 cells. The EC50 was > 30000 nM in [1]; 95 nM in data set [2]; 6.7 nM in [6]; 2800 nM in [7]; 2100 nM in [8]. For the same molecule, the Emax is 84% in data set [3] and 99% in data set [5] (filed as agonist). This molecule gave a logD in [10] of 2. In addition, in data set [9], the IC50 is > 100000 nM.

For the molecule `Cn1c(CN2CCC(c3cccc(OCc4ccc(Cl)cc4F)n3)CC2)nc2nccc(NCC(=O)O)c21`, the hepatocyte CLint in the data set “in vitro” stood at 37 µL/min/1e6 cells. The EC50 in [1] was > 30000 nM; in data set [2], 4600 nM; in [6] it was 44 nM; in [7] it was 1500 nM; in data set [8], > 20000 nM. For the same molecule, the maximal response (Emax) in data set [3] worked out at 90%; in data set [5], 23%. The same molecule had a logD in data set [10] of 2.3. Further, in [9], the concentration for half-maximal inhibition (IC50) was > 10000 nM.

On to `N#Cc1ccc(COc2cccc(C3CCN(Cc4nc5ccc(C(=O)O)cc5n4C[C@@H]4CCO4)CC3)n2)c(F)c1` [DANUGLIPRON], for which the bioavailability in [11] came out at 5%; in [16], 39%; in data set [17] it was 11%; in [22], 9%. Besides, the AUC was determined as 11000 ng·h/mL in [12]; 11900 ng·h/mL in data set [14]; 168 ng·h/mL in data set [18]; 296 ng·h/mL in [23]; 303 ng·h/mL in data set [24]; 1240 ng·h/mL in data set [25]. The same molecule showed an intrinsic metabolic clearance (hepatocyte CLint) in the data set “in vitro” of 6.9 µL/min/1e6 cells. The Cmax in [13] was 141 ng/mL; in data set [19], 2820 ng/mL; in [27], 1150 ng/mL; in data set [29] it was 68.7 ng/mL. Besides, the Vdss was 0.86 L/kg in [15] and 0.266 L/kg in [21]. Besides, in [3], the Emax was determined as 110%. Further, the Activity result with Macaca fascicularis [20] was “Dde”. The outcome (in the data set on CHO; with Cynomolgus monkey; with Macaca fascicularis [28]; in data set [31]) was Active. Moreover, the logD in [10] came out at 1.8. In addition, the EC50 in data set [26] is > 20000 nM. Further, the CLH in data set [30] is < 10 µL/min. For the same molecule, inhibition in data set [9] was half-maximal at 4300 nM (IC50).

For `CCn1cncc1Cn1c(CN2CCC(c3cccc(OCc4ccc(F)cc4F)n3)CC2)nc2ccc(C(=O)O)cc21`, the EC50 in data set [2] was determined as 0.75 nM; in data set [8] it was 8.6 nM; in [33], 610 nM; in [34], 250 nM. In data set [32], the Ki turned out to be 51 nM.

For `Cn1c(CN2CCC(c3nc(OCc4ccc(Cl)cc4F)ncc3F)CC2)nc2ccccc21`, in “in vitro”, the hepatocyte CLint was determined as 48 µL/min/1e6 cells. Also, the EC50 in data set [2] is > 20000 nM; in data set [6] it was > 9900 nM; in [8] it was > 20000 nM. Moreover, the logD in [4] amounted to 5.6. For the same molecule, in data set [9], the IC50 was determined as 5400 nM.
